Tests used:
gastric epithelium = assay: method of Goldemberg, ulceration by pylorus ligature (ulcerogenic effect); assay type: in vivo, Sprague-Dowley rats; settings: for ulceration score Increase: increase over control (distilled water) score 2.0, mg/Kg: phenylbutazone 75, acid 47, acetylsalicylic acid 200; for ulceration Score: score 0=no hemorrhagic spots to 6=perforated ulcer, control (distilled water) 2.0, mg/Kg: phenylbutazone 75, acid 47, acetylsalicylic acid 200, phthalidyl ester 69; for ulcerogenic effect (in words): summary statement, b45 relative to the respective acid
Procedure: 2 To compare the effect on ulcer of the new compound regarding to other antiinflammatory drugs, the method of Goldemberg (ulceration by pylorus ligature) (Arzneim. Forsch. (Drug Res.) 26, 3, 1976) to Sprague-Dowley rats (400-600 g of weight), was performed. The ulceration of the gastric epithelium was observed and evaluated in accordance to the following score; 0=no hemorrhagic spots; 1=some isolated hemorrhagic spots; 2=redness of the gastric epithelium; 3=1 to 5 small ulcers with a diameter greater than 3 mm; 6=perforated ulcer.

[1] = system: carraghenine-provoked aedema of the paw of rat; assay: carraghenine-provoked aedema of the paw of rat (antiinflammatory activity); assay type: in vivo; settings: for % AEDEMA INHIBITION 3 hr / % AEDEMA INHIBITION 4 hr: rat paw, TNA 47 mg/Kg, PTP 69 mg/Kg (equivalent to 47 mg of the acid)
From the text: 1 By means of the test involving the carraghenine-provoked aedema of the paw of rat (Winter, C. A., Proceeding Soc. Exp. Biol. Med., III, 544, 1962) the antiinflammatory activities of phthalidyl 2-(3'-trifluormethylanilino)-pyridine-3-carboxylate (PTP) and 2(3'-trifluormethylanilino) nicotinic acid (TNA), were compared.

[2] = background statement; cited from earlier work
[3] = background statement; cited from earlier work; remark: listed apart in the source
oral tolerability = assay type: in vivo

CC(=O)Oc1ccccc1C(=O)O [Acetylsalicylic acid]
ulceration score Increase (gastric epithelium): 1.9
ulceration Score (gastric epithelium): 3.9

O=C(O)c1cccnc1Nc1cccc(C(F)(F)F)c1 [TNA, 2(3'-trifluormethylanilino) nicotinic acid]
% AEDEMA INHIBITION 3 hr [1]: 25.6%
% AEDEMA INHIBITION 4 hr [1]: 31.8%
ulceration score Increase (gastric epithelium): 1.3
ulceration Score (gastric epithelium): 3.3
antiinflammatory activity (in words) [2]: relevant antiinflammatory activity
ulcer provocation (in words) [3]: provoke ulcers

CCCCC1C(=O)N(c2ccccc2)N(c2ccccc2)C1=O [Phenylbutazone]
ulceration score Increase (gastric epithelium): 2.3
ulceration Score (gastric epithelium): 4.3

O=C1OC(OC(=O)c2cccnc2Nc2cccc(C(F)(F)F)c2)c2ccccc21 (stereo not drawn) [PTP, phthalidyl 2-(3'-trifluormethylanilino)-pyridine-3-carboxylate]
% AEDEMA INHIBITION 3 hr [1]: 32%
% AEDEMA INHIBITION 4 hr [1]: 37.8%
antiinflammatory activity compared with the acid (in words) ([1]; relative to 2(3'-trifluormethylanilino) pyridine-3-carboxylic acid): antiinflammatory activity greater than the acid
anti-inflammatory activity (in words) ([1]; summary statement): anti-inflammatory activity
ulceration Score (gastric epithelium): 2.0
ulcerogenic effect (in words) (gastric epithelium): less ulcerogenic than respective acid
ulcerogenic effect (in words) (gastric epithelium; listed as phthalidyl ester): without ulcerogenic effect
oral tolerability (in words) (oral tolerability): orally well tolerated

— patent US4168313A, “Phthalidyl 2-(3'-trifluoromethyl-anilino)-pyridine-3-carboxylate and its salts” (priority 1978, dated 1979)
